Experimental data as given in patent US11753407B2, “Compounds for treating spinal muscular atrophy” (PTC Therapeutics, Inc., priority 2012, dated 2023).

Legend:
[1] = system: SMN2 minigene mRNA (SMN2-A minigene) in HEK293H cells; assay: SMN2 minigene mRNA splicing RT-qPCR assay in cultured cells; type: cell-based, human; conditions: Homo sapiens, HEK293-H; concentration increasing full length SMN2 mRNA 1.5-fold relative to vehicle-treated cells; HEK293H cells with SMN2-A minigene, 24 hours, 7-point concentration data; read-out: EC1.5x for production of full length SMN2 mRNA
How it was run: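 HEK293H cells stably carrying the SMN2-A minigene were treated for 24 h at 37 °C with a 7-point, 3.16-fold dilution series of compound. Multiplex RT-qPCR measured exon 7-containing minigene FL mRNA against GAPDH, expressed relative to vehicle by modified ΔΔCt; the EC1.5× is the concentration giving a 1.5-fold increase.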

[2] = system: Smn protein in SMA patient fibroblast cells (GM03813); assay: Smn protein assay in cultured cells (SMN HTRF); type: cell-based, human; conditions: SMA patient fibroblast cells, 48 hours; for EC1.5x for Smn protein expression: 7-point concentration curve, SMN HTRF, concentration producing 1.5 times Smn protein vs DMSO vehicle control; for maximum fold (Fold) increase of Smn protein: 7-point concentration data, fold relative to vehicle control
How it was run: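 SMA patient fibroblasts (5,000 cells/well, DMEM-10% FBS) were treated for 48 h at 37 °C with a 7-point, 3.16-fold dilution series in triplicate. RIPA lysates were probed by HTRF (anti-SMN d2/kryptate, overnight, room temperature), reading 665/620 nm. EC1.5× is the concentration giving 1.5-fold Smn over DMSO vehicle.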

SMILES | melting point [°C] | EC (1.5-fold increase) [1] [µM] | EC1.5x for Smn protein expression [2] | maximum fold (Fold) increase of Smn protein [2]
CCN1CC=C(c2cn3c(=O)cc(-c4ccc5nc(C)oc5c4)nc3cn2)CC1 [Compound 423, 7-(1-ethyl-1,2,3,6-tetrahydropyridin-4-yl)-2-(2-methyl-1,3-benzoxazol-6-yl)-4H-pyrazino[1,2-a]pyrimidin-4-one] | 225 to 227 | < 0.1 | *** (an EC1.5× between >0.3 μM and ≤1 μM is indicated by three stars (***)) | **** (a fold increase between >1.5 and ≤1.65 is indicated by four stars (****))
Cc1cn2nc(-c3cc(=O)n4cc(N5CCC(N6CCCCC6)CC5)ccc4n3)cc2c(C)n1 [Compound 426, 7-(1,4′-bipiperidin-1′-yl)-2-(4,6-dimethylpyrazolo[1,5-a]pyrazin-2-yl)-4H-pyrido[1,2-a]pyrimidin-4-one] | 236 to 238 | 0.3 to 1 | *** (an EC1.5× between >0.3 μM and ≤1 μM is indicated by three stars (***)) | ***** (a fold increase >1.65 is indicated by five stars (*****))
Cc1cn2nc(-c3cc(=O)n4cc(N5CCC(N6CCN(C)CC6)CC5)ccc4n3)cc2c(C)n1 [Compound 427, 2-(4,6-dimethylpyrazolo[1,5-a]pyrazin-2-yl)-7-[4-(4-methylpiperazin-1-yl)piperidin-1-yl]-4H-pyrido[1,2-a]pyrimidin-4-one] | 198 to 200 | 1 to 3 | * (An EC1.5× for Smn protein expression between >3 μM and ≤10 μM is indicated by one star (*)) | *** (a fold increase between >1.35 and ≤1.5 is indicated by three stars (***))
Cc1cn2nc(-c3cc(=O)n4cc(N5CCC(N6CCOCC6)CC5)ccc4n3)cc2c(C)n1 [Compound 428, 2-(4,6-dimethylpyrazolo[1,5-a]pyrazin-2-yl)-7-[4-(morpholin-4-yl)piperidin-1-yl]-4H-pyrido[1,2-a]pyrimidin-4-one] | 192 to 195 | 0.3 to 1 | ** (an EC1.5× between >1 μM and ≤3 μM is indicated by two stars (**)) | *** (a fold increase between >1.35 and ≤1.5 is indicated by three stars (***))
Cc1cn2cc(-c3cc(=O)n4cc(C5=CCNCC5)ccc4n3)ccc2n1 [Compound 429, 2-(2-methylimidazo[1,2-a]pyridin-6-yl)-7-(1,2,3,6-tetrahydropyridin-4-yl)-4H-pyrido[1,2-a]pyrimidin-4-one] | 206 to 208 | < 0.1 | **** (an EC1.5x≤0.3 μM is indicated by four stars (****)) | **** (a fold increase between >1.5 and ≤1.65 is indicated by four stars (****))
Cc1cn2cc(-c3cc(=O)n4cc(C5=CCN(C)CC5)ccc4n3)ccc2n1 [Compound 430, 2-(2-methylimidazo[1,2-a]pyridin-6-yl)-7-(1-methyl-1,2,3,6-tetrahydropyridin-4-yl)-4H-pyrido[1,2-a]pyrimidin-4-one] | 137 to 140 | < 0.1 | **** (an EC1.5x≤0.3 μM is indicated by four stars (****)) | **** (a fold increase between >1.5 and ≤1.65 is indicated by four stars (****))
CCN1CC=C(c2ccc3nc(-c4ccc5nc(C)cn5c4)cc(=O)n3c2)CC1 [Compound 431, 7-(1-ethyl-1,2,3,6-tetrahydropyridin-4-yl)-2-(2-methylimidazo[1,2-a]pyridin-6-yl)-4H-pyrido[1,2-a]pyrimidin-4-one] | 220 to 223 | < 0.1 | **** (an EC1.5x≤0.3 μM is indicated by four stars (****)) | ***** (a fold increase >1.65 is indicated by five stars (*****))
Cc1cn2nc(-c3cc(=O)n4cc(N5CCN(C)CC5)ccc4n3)cc2cn1 [Compound 440, 7-(4-methylpiperazin-1-yl)-2-(6-methylpyrazolo[1,5-a]pyrazin-2-yl)-4H-pyrido[1,2-a]pyrimidin-4-one] | 230 to 240 | < 0.1 | **** (an EC1.5x≤0.3 μM is indicated by four stars (****)) | **** (a fold increase between >1.5 and ≤1.65 is indicated by four stars (****))

Now from value to compound, other results behind:

melting point [°C] | SMILES | EC (1.5-fold increase) [1] [µM] | EC1.5x for Smn protein expression [2] | maximum fold (Fold) increase of Smn protein [2]
222 to 224 | Cc1nc2ccc(-c3cc(=O)n4cc(C5CCNCC5)ccc4n3)cc2s1 [Compound 424, 2-(2-methyl-1,3-benzothiazol-6-yl)-7-(piperidin-4-yl)-4H-pyrido[1,2-a]pyrimidin-4-one] | < 0.1 | **** (an EC1.5x≤0.3 μM is indicated by four stars (****)) | ***** (a fold increase >1.65 is indicated by five stars (*****))
215 to 218 | Cc1cn2nc(-c3cc(=O)n4cc(N5CCC(N6CCCC6)CC5)ccc4n3)cc2c(C)n1 [Compound 425, 2-(4,6-dimethylpyrazolo[1,5-a]pyrazin-2-yl)-7-[4-(pyrrolidin-1-yl)piperidin-1-yl]-4H-pyrido[1,2-a]pyrimidin-4-one] | < 0.1 | **** (an EC1.5x≤0.3 μM is indicated by four stars (****)) | ***** (a fold increase >1.65 is indicated by five stars (*****))
204 to 206 | Cc1cn2cc(-c3cc(=O)n4cc(N5CCC(N(C)C)CC5)ccc4n3)ccc2n1 [Compound 432, 7-[4-(dimethylamino)piperidin-1-yl]-2-(2-methylimidazo[1,2-a]pyridin-6-yl)-4H-pyrido[1,2-a]pyrimidin-4-one] | < 0.1 | **** (an EC1.5x≤0.3 μM is indicated by four stars (****)) | ***** (a fold increase >1.65 is indicated by five stars (*****))
185 to 193 | COc1ccc(-c2cc(=O)n3cc(N4CCC(NCCO)CC4)cc(C)c3n2)cc1OC [Compound 433, 2-(3,4-dimethoxyphenyl)-7-{4-[(2-hydroxyethyl)amino]piperidin-1-yl}-9-methyl-4H-pyrido[1,2-a]pyrimidin-4-one] | < 0.1 | – | *** (a fold increase between >1.35 and ≤1.5 is indicated by three stars (***))
146 | CCc1cc(C2CCN(C)CC2)cn2c(=O)cc(-c3ccc(OC)c(OC)c3)nc12 [Compound 434, 2-(3,4-dimethoxyphenyl)-9-ethyl-7-(1-methylpiperidin-4-yl)-4H-pyrido[1,2-a]pyrimidin-4-one] | 0.3 to 1 | – | ** (a fold increase between >1.2 and ≤1.35 is indicated by two stars (**))
149 to 155 | CCN(CC)C1CCN(c2cc(C)c3nc(-c4ccc(OC)c(OC)c4)cc(=O)n3c2)CC1 [Compound 435, 7-[4-(diethylamino)piperidin-1-yl]-2-(3,4-dimethoxyphenyl)-9-methyl-4H-pyrido[1,2-a]pyrimidin-4-one] | 0.1 to 0.3 | – | *** (a fold increase between >1.35 and ≤1.5 is indicated by three stars (***))
157 to 162 | CCc1cc(C2CCN(CC)CC2)cn2c(=O)cc(-c3ccc(OC)c(OC)c3)nc12 [Compound 436, 2-(3,4-dimethoxyphenyl)-9-ethyl-7-(1-ethylpiperidin-4-yl)-4H-pyrido[1,2-a]pyrimidin-4-one] | 0.3 to 1 | – | ** (a fold increase between >1.2 and ≤1.35 is indicated by two stars (**))
230 to 232 | Cc1cn2cc(-c3cc(=O)n4cc(N5CCC(N6CCCC6)CC5)ccc4n3)ccc2n1 [Compound 437, 2-(2-methylimidazo[1,2-a]pyridin-6-yl)-7-[4-(pyrrolidin-1-yl)piperidin-1-yl]-4H-pyrido[1,2-a]pyrimidin-4-one] | 0.1 to 0.3 | *** (an EC1.5× between >0.3 μM and ≤1 μM is indicated by three stars (***)) | **** (a fold increase between >1.5 and ≤1.65 is indicated by four stars (****))
298 to 300 | Cc1cn2cc(-c3cc(=O)n4cc(C5CCNCC5)ccc4n3)ccc2n1 [Compound 438, 2-(2-methylimidazo[1,2-a]pyridin-6-yl)-7-(piperidin-4-yl)-4H-pyrido[1,2-a]pyrimidin-4-one] | < 0.1 | **** (an EC1.5x≤0.3 μM is indicated by four stars (****)) | ***** (a fold increase >1.65 is indicated by five stars (*****))
240 to 242 | Cc1nc2ccc(-c3cc(=O)n4cc(C5CCN(C)CC5)ccc4n3)cc2s1 [Compound 439, 2-(2-methyl-1,3-benzothiazol-6-yl)-7-(1-methylpiperidin-4-yl)-4H-pyrido[1,2-a]pyrimidin-4-one] | 0.1 to 0.3 | ** (an EC1.5× between >1 μM and ≤3 μM is indicated by two stars (**)) | *** (a fold increase between >1.35 and ≤1.5 is indicated by three stars (***))
